Assay results from US10377753B2, “Substituted 4-azaindoles and their use as GluN2B receptor modulators” (Janssen Pharmaceutica NV, priority 2015, dated 2019).
Where a name gives a salt, the structure may show the parent alone.

Biological target: cloned human NR1/NR2B ion channels (Homo sapiens (Human), UniProt Q05586+Q13224)
Assay: HNR2BC: effects of test articles on cloned human NR1/NR2B ion channels expressed in mammalian cells (FLIPR calcium flux)
Type: cell-based
Settings: cloned human NR1/NR2B, Table 5
Method in brief: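 Compounds were added to dye-loaded cells for 5 min with fluorescence monitored for agonism, followed by co-agonists (glutamate ~EC80, glycine 10 μM saturating) for 5 min. Cells stably expressed inducible human NR1/NR2B, and the buffer was pH 7.4. The FLIPR Ca2+ flux signal was normalized against control wells.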

Chain of cloned human NR1/NR2B ion channels (Q13224 27-1484, other chains not shown): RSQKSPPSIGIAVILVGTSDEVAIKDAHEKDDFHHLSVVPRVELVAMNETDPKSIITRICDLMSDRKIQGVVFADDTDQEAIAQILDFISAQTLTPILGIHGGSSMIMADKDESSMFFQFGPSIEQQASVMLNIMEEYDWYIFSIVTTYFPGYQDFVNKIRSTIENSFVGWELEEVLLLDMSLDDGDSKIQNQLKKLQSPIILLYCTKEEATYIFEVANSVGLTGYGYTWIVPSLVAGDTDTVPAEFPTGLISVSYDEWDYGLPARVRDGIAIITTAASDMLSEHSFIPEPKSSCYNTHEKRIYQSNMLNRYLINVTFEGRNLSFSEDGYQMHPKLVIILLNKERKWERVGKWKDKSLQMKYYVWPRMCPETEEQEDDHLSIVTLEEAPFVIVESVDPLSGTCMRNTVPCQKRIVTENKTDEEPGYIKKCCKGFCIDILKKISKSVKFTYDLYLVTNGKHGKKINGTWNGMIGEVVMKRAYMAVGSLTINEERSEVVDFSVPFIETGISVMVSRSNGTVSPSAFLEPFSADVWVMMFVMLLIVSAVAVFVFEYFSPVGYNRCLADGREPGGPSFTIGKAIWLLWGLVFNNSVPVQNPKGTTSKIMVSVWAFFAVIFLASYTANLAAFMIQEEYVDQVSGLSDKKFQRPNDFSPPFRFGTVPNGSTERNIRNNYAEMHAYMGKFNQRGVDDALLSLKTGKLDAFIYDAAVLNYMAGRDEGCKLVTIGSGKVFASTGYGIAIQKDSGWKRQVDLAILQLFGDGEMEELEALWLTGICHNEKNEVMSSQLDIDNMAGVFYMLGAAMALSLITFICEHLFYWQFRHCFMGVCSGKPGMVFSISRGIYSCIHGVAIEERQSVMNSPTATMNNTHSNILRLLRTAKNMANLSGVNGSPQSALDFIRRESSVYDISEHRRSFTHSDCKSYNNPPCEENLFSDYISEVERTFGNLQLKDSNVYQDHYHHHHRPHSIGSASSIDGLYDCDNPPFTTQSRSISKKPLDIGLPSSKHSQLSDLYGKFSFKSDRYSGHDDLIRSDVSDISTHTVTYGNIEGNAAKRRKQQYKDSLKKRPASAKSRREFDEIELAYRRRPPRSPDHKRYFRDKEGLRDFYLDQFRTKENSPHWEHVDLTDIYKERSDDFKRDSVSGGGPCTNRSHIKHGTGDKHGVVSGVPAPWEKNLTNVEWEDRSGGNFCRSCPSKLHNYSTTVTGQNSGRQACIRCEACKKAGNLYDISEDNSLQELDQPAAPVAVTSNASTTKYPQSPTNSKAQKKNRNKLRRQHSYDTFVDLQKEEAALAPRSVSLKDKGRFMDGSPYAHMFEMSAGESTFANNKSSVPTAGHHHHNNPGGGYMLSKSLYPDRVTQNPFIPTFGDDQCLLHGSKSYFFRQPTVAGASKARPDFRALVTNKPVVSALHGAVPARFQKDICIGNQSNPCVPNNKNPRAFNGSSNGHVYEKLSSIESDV

| IC50 [nM] | SMILES |
| --- | --- |
| 3160 | Cc1cc(-c2cnc3ccn(Cc4cn(C)nn4)c3c2)ccc1F [Example 238, 6-(4-Fluoro-3-methyl-phenyl)-1-[(1-methyltriazol-4-yl)methyl]pyrrolo[3,2-b]pyridine] |
| 158 | Cc1noc(Cn2cc(Cl)c3ncc(-c4ccc(F)c(C)c4)cc32)n1 [Example 239, 5-[[3-Chloro-6-(4-fluoro-3-methyl-phenyl)pyrrolo[3,2-b]pyridin-1-yl]methyl]-3-methyl-1,2,4-oxadiazole] |
| 501 | Cc1cc(-c2cnc3c(Cl)cn(Cc4cnn(C)c4)c3c2)ccc1F [Example 240, 3-Chloro-6-(4-fluoro-3-methyl-phenyl)-1-[(1-methylpyrazol-4-yl)methyl]pyrrolo[3,2-b]pyridine] |
| 5010 | Cc1cc(-c2cnc3c(Cl)cn(CC(=O)C4CCC4)c3c2)ccc1F [Example 241, 2-[3-Chloro-6-(4-fluoro-3-methyl-phenyl)pyrrolo[3,2-b]pyridin-1-yl]-1-cyclobutyl-ethanone] |
| 794 | Cc1cc(-c2cnc3ccn(CC(=O)C4CCC4)c3c2)ccc1F [Example 242, 1-Cyclobutyl-2-[6-(4-fluoro-3-methyl-phenyl)pyrrolo[3,2-b]pyridin-1-yl]ethanone] |
| 100 | O=C(Cn1cc(Cl)c2ncc(-c3cncc(C(F)(F)F)c3)cc21)N1CCC1 [Example 243, 1-(Azetidin-1-yl)-2-[3-chloro-6-[5-(trifluoromethyl)-3-pyridyl]pyrrolo[3,2-b]pyridin-1-yl]ethanone trifluoroacetate salt] |
| 631 | O=C(Cn1cc(Cl)c2ncc(-c3cncc(C(F)(F)F)c3)cc21)NC1CC1 [Example 244, 2-[3-Chloro-6-[5-(trifluoromethyl)-3-pyridyl]pyrrolo[3,2-b]pyridin-1-yl]-N-cyclopropyl-acetamide trifluoroacetate salt] |
| 398 | O=C(Cn1cc(Cl)c2ncc(-c3cccc(C(F)(F)F)n3)cc21)N1CCC1 [Example 245, 1-(Azetidin-1-yl)-2-[3-chloro-6-[6-(trifluoromethyl)-2-pyridyl]pyrrolo[3,2-b]pyridin-1-yl]ethanone] |
| 100 | O=C(Cn1cc(Cl)c2ncc(-c3cccc(C(F)(F)F)n3)cc21)NC1CC1 [Example 246, 2-[3-Chloro-6-[6-(trifluoromethyl)-2-pyridyl]pyrrolo[3,2-b]pyridin-1-yl]-N-cyclopropyl-acetamide] |
| 316 | O=C(Cn1cc(Cl)c2ncc(-c3cccc(C(F)(F)F)n3)cc21)N1CC(F)C1 [Example 247, 2-[3-Chloro-6-[6-(trifluoromethyl)-2-pyridyl]pyrrolo[3,2-b]pyridin-1-yl]-1-(3-fluoroazetidin-1-yl)ethanone] |
| 63.1 | O=C(Cn1ccc2ncc(-c3cc(F)c(F)c(F)c3)cc21)NC1CC1 [Example 248, N-Cyclopropyl-2-[6-(3,4,5-trifluorophenyl)pyrrolo[3,2-b]pyridin-1-yl]acetamide] |
| 79.4 | O=C(Cn1ccc2ncc(-c3ccc(F)c(F)c3F)cc21)NC1CC1 [Example 249, N-Cyclopropyl-2-[6-(2,3,4-trifluorophenyl)pyrrolo[3,2-b]pyridin-1-yl]acetamide] |
| 251 | O=C(Cn1ccc2ncc(-c3cccc(C(F)F)c3)cc21)NC1CC1 [Example 250, N-Cyclopropyl-2-[6-[3-(difluoromethyl)phenyl]pyrrolo[3,2-b]pyridin-1-yl]acetamide] |
| 50.1 | O=C(Cn1ccc2ncc(-c3ccc(F)cc3)cc21)NCc1ccccc1 [Example 251, N-Benzyl-2-[6-(4-fluorophenyl)pyrrolo[3,2-b]pyridin-1-yl]acetamide] |
| 79.4 | O=C(Cn1ccc2ncc(-c3ccc(F)cc3)cc21)NCCO [Example 253, 2-[6-(4-Fluorophenyl)pyrrolo[3,2-b]pyridin-1-yl]-N-(2-hydroxyethyl)acetamide] |
| 1260 | COCCNC(=O)Cn1ccc2ncc(-c3ccc(F)cc3)cc21 [Example 254, 2-[6-(4-Fluorophenyl)pyrrolo[3,2-b]pyridin-1-yl]-N-(2-methoxyethyl)acetamide] |
